Like-named read-outs stand apart in the source and are kept apart here. Some results are limits rather than exact numbers.

Data on four compounds can be found in PMC3445516 (PLoS ONE, 2012).

The target of one test is T1, PKCα (Homo sapiens, UniProt P17252).
T1 construct: purchased SignalChem (Richmond, BC, Canada)
Briefly: In vitro radiometric PKC kinase assay. It is filed as biochemical. Conditions: 0.1, 1 and 10 µM; positive control. The procedure: (§1) In this study, we counter-screened the twenty-eight PKD1 inhibitory agents for inhibition of PKCα, PKCδ and CAMKIIα in order to get an initial profile for the potential PKD selectivity, since these are the functionally most closely related kinases. The compounds were examined at 0.1, 1 and 10 µM concentration. […] Next, the inhibitory activity for CAMKIIα was examined.
(§2) The PKC kinase assay was carried out by co-incubating 1 µCi [γ-^32P]ATP, 20 µM ATP, 50 ng of purified PKCα or PKCδ and 5 µg of myelin basic protein 4–14, 0.25 mg/mL bovine serum albumin, 0.1 mg/mL phosphatidylcholine/phosphatidylserine (80/20%) (1 µM), 1 µM phorbol dibutyrate in 50 µL of kinase buffer containing 50 mM Tris-HCl, pH 7.5, 4 mM MgCl2 and 10 mM β-mercaptoethanol. For the CAMK assay, 50 ng of CAMK and 2 µg Syntide-2 substrate in 50 µL kinase buffer were incubated with 0.1 mM MgCl2, 1 µCi of [γ-^32P] ATP, 70 µM ATP. 0.5 mM CaCl2 and 30 ng/µL calmodulin were preincubated for 15 min on ice and then added in the kinase reaction. The reactions were incubated at 30°C for 10 minutes and 25 µL of the reaction was spotted on Whatman P81 filter paper. The filter paper was washed 3 times in 0.5% phosphoric acid, air dried and counted using Beckman LS6500 multipurpose scintillation counter.

The target in a further test is PKCδ (Homo sapiens, UniProt Q05655). As to the kind of experiment: In vitro radiometric PKC kinase assay. It is filed as biochemical. Also noted: purchased SignalChem (Richmond, BC, Canada). The procedure: as §1, §2
In test [1] the target is T2, recombinant GST-tagged human protein kinase D1 (PKD1) (Homo sapiens, UniProt Q15139).
T2 construct: purchased Enzo Life sciences (Farmingdale, NY)
T2 sequence (Q15139 1-912): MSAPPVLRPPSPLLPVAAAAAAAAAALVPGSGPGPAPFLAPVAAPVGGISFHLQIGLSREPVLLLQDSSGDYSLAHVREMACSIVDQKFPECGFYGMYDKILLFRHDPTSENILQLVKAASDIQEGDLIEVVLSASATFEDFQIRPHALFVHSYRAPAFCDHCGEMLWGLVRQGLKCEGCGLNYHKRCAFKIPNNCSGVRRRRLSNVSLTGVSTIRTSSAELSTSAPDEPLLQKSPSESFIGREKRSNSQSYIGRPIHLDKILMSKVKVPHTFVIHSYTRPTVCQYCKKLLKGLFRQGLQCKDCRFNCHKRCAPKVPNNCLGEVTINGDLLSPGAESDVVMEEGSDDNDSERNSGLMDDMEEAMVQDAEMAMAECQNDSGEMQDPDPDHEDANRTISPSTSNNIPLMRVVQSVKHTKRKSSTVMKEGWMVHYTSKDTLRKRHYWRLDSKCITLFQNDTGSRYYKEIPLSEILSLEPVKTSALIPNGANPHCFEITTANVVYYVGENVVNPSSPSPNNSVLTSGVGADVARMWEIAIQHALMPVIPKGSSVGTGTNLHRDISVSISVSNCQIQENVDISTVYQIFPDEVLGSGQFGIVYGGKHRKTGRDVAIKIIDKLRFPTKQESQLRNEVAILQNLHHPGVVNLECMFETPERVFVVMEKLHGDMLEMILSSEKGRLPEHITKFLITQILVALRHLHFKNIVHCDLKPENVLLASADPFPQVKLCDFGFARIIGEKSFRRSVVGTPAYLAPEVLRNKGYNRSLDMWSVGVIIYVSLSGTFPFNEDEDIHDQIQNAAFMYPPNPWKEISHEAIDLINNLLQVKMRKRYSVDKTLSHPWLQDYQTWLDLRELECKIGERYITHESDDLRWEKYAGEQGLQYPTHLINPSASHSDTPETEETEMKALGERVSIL
As to the kind of experiment: In vitro radiometric PKD1 kinase assay. It is filed as biochemical. The conditions noted are these: for inhibition at 1 µM: read-out: Inhibition of PKD1. The procedure:
All compounds were given distinct UPCMLD (University of Pittsburgh Center for Chemical Methodologies and Library Development) IDs and were then assigned numerical IDs for convenient data display. Evaluation of each compound was carried out in triplicate at a single concentration (1 µM). Our previously described PKD1 inhibitor, kb-NB142-70, and DMSO (solvent alone) were used as positive and negative controls, respectively. Percent residual kinase activity was calculated based on that of the negative control (DMSO).
Kinase active recombinant GST-tagged human protein kinase D1 (PKD1) was obtained from Enzo Life sciences (Farmingdale, NY). DMSO was purchased from Sigma. Recombinant PKCα, PKCδ and CAMKIIα were obtained from SignalChem (Richmond, BC, Canada). ATP was purchased from Fisher Scientific. HDAC5 substrate peptide was synthesized by Biobasic Canada Inc. (Markham, ON). Myelin basic protein 4–14 was purchased from AnaSpec Inc. (Fremont, CA). The targeted kinase inhibitor library was obtained from Hoffmann-La Roche, Inc.
1.2 µg of HDAC-5 was used as substrate in the reaction. Phosphorylation of HDAC5 was detected in a kinase reaction having 1 µCi [γ-^32P] […] The reaction was incubated at 30° for 10 minutes and 25 µL of the reaction was spotted on Whatman P81 filter paper. The filter paper was washed 3 times in 0.5% phosphoric acid, air dried and counted using Beckman LS6500 multipurpose scintillation counter. Percent PKD1 inhibition was graphed using GraphPad Prism software 5.0.

For another test, the target named is p38α (Homo sapiens, UniProt Q16539). The conditions noted are these: 10 and 100 nM. The procedure:
(§3) Phosphorylation of 3.5 µg of p38 substrate was detected in a reaction having 1 µCi [γ-^32P] ATP (Perkin Elmer Life Sciences), 50 µM ATP, 50 ng active recombinant p38 in 50 µL kinase buffer containing 25 mM Tris-HCl, pH 7.5, 10 mM MgCl2, 5 mM β-glycerophosphate, 0.1 mM Na3VO4 and 2 mM DTT. The reaction was incubated at 30°C for 10 minutes and 25 µL of the reaction was spotted on Whatman P81 filter paper. The filter paper was washed 3 times in 0.5% phosphoric acid, air dried and counted using Beckman LS6500 multipurpose scintillation counter. Percent p38 inhibition was graphed using GraphPad Prism software 5.0.

The target of test [2] is T3, endogenous PKD1 in LNCaP prostate cancer cells (Homo sapiens, UniProt Q15139).
T3 construct: endogenous in cells; host or cells: LNCaP prostate cancer cells
T3 sequence (Q15139 1-912): T2 sequence (Q15139 1-912)
Briefly: PMA-induced activation of PKD1 in LNCaP cells (immunoblot pS916 / pS744/748). Conditions: PMA 10 nM. The test is classed as cell-based. On the procedure:
(§4) PMA induces PKC-dependent phosphorylation of Ser744/748 (S^744/748) in the activation loop followed by autophosphorylation of PKD1 on Ser916 (S^916) in the C-terminus, [31]. The catalytic activity of PKD1 correlates well with the level of phosphorylation at S^916 [31].
(§5) Figure 5 In vitro IC50, cellular activity, and mode of action of representative compounds. […] IC50 values were calculated based on the dose-response curve. Data are represented as mean ± SEM of 3 independent experiments. […] Cell lysates were subjected to immunoblotting for pS^916-PKD1 and pS^744/748-PKD1. Tubulin was blotted as loading control. The experiments were repeated three times and representative blots are shown. C.
In general terms: In western blotting, separated proteins are transferred to a membrane and probed.

Another test has as its target T4, PKD1 (Homo sapiens, UniProt Q15139).
T4 construct: purchased Enzo Life sciences (Farmingdale, NY)
Briefly: Kinetic analysis, Lineweaver-Burk plots (ATP competition). The test is classed as biochemical. On the procedure:
as §4, §5

Test [3] has as its system LPS-stimulated TNFα synthesis. Also noted: method as in PMID 14561090. The conditions noted are these: acute rat model of LPS-stimulated TNFα synthesis; cited from earlier work.
The target of the next test is p38δ (Homo sapiens, UniProt O15264). As to the kind of experiment: In vitro radiometric p38 kinase assay. It is filed as biochemical. On the procedure:
To confirm that p38 was indeed a target of the 4-azaindole, the inhibition of p38 by the twenty-eight PKD1 inhibitors was evaluated using an in vitro radiometric p38 kinase assay. […] Taken together, our data has identified a novel PKD1 inhibitor scaffold that is active for p38α, but not for PKC, CAMK and p38δ.
as §3

Setting [4] is: 1 µM, triplicate determinations.

Chain of p38δ (O15264 whole entry): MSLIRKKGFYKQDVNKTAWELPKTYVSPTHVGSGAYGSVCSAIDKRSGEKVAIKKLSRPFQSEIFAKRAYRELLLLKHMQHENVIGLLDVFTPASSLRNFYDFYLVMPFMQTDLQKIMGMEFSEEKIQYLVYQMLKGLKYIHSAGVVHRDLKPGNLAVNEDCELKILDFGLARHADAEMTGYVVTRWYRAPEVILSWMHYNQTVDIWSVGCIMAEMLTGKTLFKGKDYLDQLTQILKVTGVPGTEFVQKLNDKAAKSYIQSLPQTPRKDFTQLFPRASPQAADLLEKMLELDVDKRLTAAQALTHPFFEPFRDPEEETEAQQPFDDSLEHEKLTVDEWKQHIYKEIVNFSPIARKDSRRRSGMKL
Chain of PKCδ (Q05655 whole entry): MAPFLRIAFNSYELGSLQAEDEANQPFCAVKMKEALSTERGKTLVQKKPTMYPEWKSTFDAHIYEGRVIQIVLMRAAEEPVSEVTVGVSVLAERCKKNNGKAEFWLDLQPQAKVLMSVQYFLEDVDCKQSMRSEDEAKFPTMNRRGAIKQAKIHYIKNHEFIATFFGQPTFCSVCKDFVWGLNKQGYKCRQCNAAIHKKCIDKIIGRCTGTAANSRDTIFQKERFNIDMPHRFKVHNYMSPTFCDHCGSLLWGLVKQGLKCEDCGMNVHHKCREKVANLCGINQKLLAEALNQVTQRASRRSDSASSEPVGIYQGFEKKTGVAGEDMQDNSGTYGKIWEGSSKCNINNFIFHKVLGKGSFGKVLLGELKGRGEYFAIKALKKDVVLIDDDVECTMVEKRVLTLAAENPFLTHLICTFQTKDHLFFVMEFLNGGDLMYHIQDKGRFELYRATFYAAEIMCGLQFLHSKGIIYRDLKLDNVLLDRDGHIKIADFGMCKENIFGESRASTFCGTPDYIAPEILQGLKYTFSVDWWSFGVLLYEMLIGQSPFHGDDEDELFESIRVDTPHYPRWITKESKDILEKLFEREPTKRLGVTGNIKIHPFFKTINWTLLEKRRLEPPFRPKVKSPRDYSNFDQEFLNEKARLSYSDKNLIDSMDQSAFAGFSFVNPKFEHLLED
Chain of p38α (Q16539 whole entry): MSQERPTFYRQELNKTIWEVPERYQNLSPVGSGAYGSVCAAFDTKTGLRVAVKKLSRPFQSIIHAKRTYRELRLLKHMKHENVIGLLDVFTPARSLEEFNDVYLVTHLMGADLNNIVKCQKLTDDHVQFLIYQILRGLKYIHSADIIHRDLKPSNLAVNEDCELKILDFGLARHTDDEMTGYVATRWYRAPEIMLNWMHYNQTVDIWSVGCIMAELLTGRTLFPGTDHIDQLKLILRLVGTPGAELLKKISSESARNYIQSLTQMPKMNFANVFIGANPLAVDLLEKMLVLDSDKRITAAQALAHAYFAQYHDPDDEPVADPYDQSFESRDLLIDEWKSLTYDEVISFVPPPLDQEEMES

Consider `CN(C)CCCn1cc(C2=C(c3c[nH]c4ccccc34)C(=O)NC2=O)c2ccccc21` [GF109203X, reference compound], for which, at PKCα, the “inhibition of PKCα” value is on record as “strongly inhibited”. The “inhibition of PKCδ” value on PKCδ (0.1, 1 and 10 µM, positive control) is recorded as “strongly inhibited”.

With `CC(CO)Nc1cc(-c2[nH]c3cccnc3c2-c2ccc(F)cc2)ccn1` (centres unmarked) [Compound 139], the IC50 (as a rule, the concentration that gives 50% inhibition) in test [1] (dose-response, mean ± SEM of 3 independent experiments) was found to be 16.8 nM; in test [2] (densitometry of pS916-PKD1 levels, read-out: cellular IC50 for inhibition of PKD1) it was 1500 nM. Moreover, the inhibition – broadly, how much of the control response was suppressed – at 1 µM in test [1] is 94%. Moreover, the “inhibition of p38α” value on p38α is recorded as “most potent”. In test [2], the “effect on PKC-induced transphosphorylation at S744/748” value was “did not affect”. For the same compound, the “mode of inhibition with respect to ATP” value at PKD1 is “competitive with respect to ATP”. In addition, the in vivo efficacy entry in test [3] was “in vivo efficacy has been demonstrated”.

In the case of `COc1cc[nH]c1/C=C1\C(=O)Nc2ccc(F)c(C#CC3(O)CCNCC3)c21` [Compound 15], the inhibition at 1 µM in test [1] (setting [4]) is 97%; against p38δ, at least 50%.

Consider `O=C1N=C(N[C@@H](CO)Cc2ccccc2)S/C1=C\c1ccc2ncccc2c1` [Compound 198], for which the values for the inhibition at 1 µM (in test [1] (setting [4]); at p38δ) were 62% and at least 50%, respectively. The inhibition at 10 µM at PKCδ (10 µM, read-out: inhibition of PKCδ) is around 70%.
